Test [1] has as its target LMP7 (purified human immuno proteasome) (Homo sapiens, UniProt P28062). Put plainly: Determination of LMP7 activity (fluorescence intensity assay, Suc-LLVY-AMC). The class given is biochemical. The settings on record: for IC50: 40 μM Suc-LLVY-AMC, 37° C. In a few lines: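 Purified human immunoproteasome (0.5 nM or 0.25 nM) preincubated 30 min at 37 °C with compounds (10 μM to 38 pM) in 50 mM Tris pH 7.4, 0.03% SDS. Suc-LLVY-AMC added at 40 μM; after 90 min at 37 °C, fluorescence read at ex 350/em 450 nm.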

Test [2] concerns the target Beta5 (purified human constitutive proteasome) (Homo sapiens, UniProt P28074). Put plainly: Determination of Beta5 activity (fluorescence intensity assay, Suc-LLVY-AMC). The class given is biochemical. As to conditions: purified human constitutive proteasome 1.0 nM, 40 μM Suc-LLVY-AMC, 37° C. In a few lines: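 Purified human constitutive proteasome (1.0 nM) was preincubated 30 min at 37 °C with compounds (10 μM to 38 pM) in 50 mM Tris pH 7.4, 0.03% SDS. Suc-LLVY-AMC (40 μM) was then added and fluorescence (ex 350/em 450 nm) read after 90 min at 37 °C.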

Where [3] appears, read: purified human immuno proteasome 0.5 nM.
Setting [4] is: purified human immuno proteasome 0.25 nM (examples 79, 80, 83, 84, 85, 87, 88, 89, 90, 91, 93, 94, 96, 97, 101 and 110).

The term IC50 denotes the concentration at which inhibition is half-maximal. Lower therefore signals greater potency in that assay.

Counter-ions that a name gives are not always drawn.

For `COc1cc(C[C@H](NC(=O)CCn2cnc3ccccc32)B(O)O)ccc1F` [Example 69, (R)-(1-(3-(1H-benzo[d]imidazol-1-yl)propanamido)-2-(4-fluoro-3-methoxyphenyl)ethyl)boronic acid], the “Selectivity LMP7 vs Beta5” value in test [1] was “+ (+: Selectivity < 10)”. Besides, the IC50 in test [1] (setting [3]) lay in the range of 50 to 500 nM; in test [2], 500 to 5000 nM.

For `CCOc1cccc(CC(NC(=O)CCn2cc(-c3ccccc3)nn2)B(O)O)c1` (stereo not drawn) [Example 70, (2-(3-ethoxyphenyl)-1-(3-(4-phenyl-1H-1,2,3-triazol-1-yl)propanamido)ethyl)boronic acid], the “Selectivity LMP7 vs Beta5” value in test [1] is on record as “++ (++: 10 < Selectivity < 30)”. Also, the IC50 in test [1] (setting [3]) is below 50 nM; in test [2], 50 to 500 nM.

With `O=C(CCn1cc(-c2ccccc2)nn1)N[C@@H](Cc1ccc(F)c(C(F)(F)F)c1)B(O)O` [Example 71, (R)-(2-(4-fluoro-3-(trifluoromethyl)phenyl)-1-(3-(4-phenyl-1H-1,2,3-triazol-1-yl)propanamido)ethyl)boronic acid], the “Selectivity LMP7 vs Beta5” value in test [1] is “++ (++: 10 < Selectivity < 30)”. For the same compound, the figures for the IC50 in test [1] (setting [3]) and in test [2] were below 50 nM and 50 to 500 nM, respectively.

Consider `COc1cc(C[C@H](NC(=O)CCn2cnc3ccccc32)B(O)O)ccc1C` [Example 72, (R)-(1-(3-(1H-benzo[d]imidazol-1-yl)propanamido)-2-(3-methoxy-4-methylphenyl)ethyl)boronic acid], for which the “Selectivity LMP7 vs Beta5” value in test [1] is reported as “++ (++: 10 < Selectivity < 30)”. Moreover, the IC50 is 50 to 500 nM in test [1] (setting [3]) and 500 to 5000 nM in test [2].

As to `CCc1cccc(C[C@H](NC(=O)CCn2cc(-c3ccccc3OC)nn2)B(O)O)c1` [Example 73, (R)-(2-(3-ethylphenyl)-1-(3-(4-(2-methoxyphenyl)-1H-1,2,3-triazol-1-yl)propanamido)ethyl)boronic acid], in test [1], the “Selectivity LMP7 vs Beta5” value is given as “+++ (+++: Selectivity > 30)”. The IC50 in test [1] (setting [3]) was below 50 nM; in test [2] it was 50 to 500 nM.

As to `CCc1cccc(C[C@H](NC(=O)CCn2cc(-c3cccc(OC)c3)nn2)B(O)O)c1` [Example 74, (R)-(2-(3-ethylphenyl)-1-(3-(4-(3-methoxyphenyl)-1H-1,2,3-triazol-1-yl)propanamido)ethyl)boronic acid], the “Selectivity LMP7 vs Beta5” value in test [1] is “+++ (+++: Selectivity > 30)”. Further, the IC50 in test [1] (setting [3]) is below 50 nM; in test [2], 50 to 500 nM.

Regarding `CCc1cccc(C[C@H](NC(=O)CCn2cc(-c3ccc(OC)cc3)nn2)B(O)O)c1` [Example 75, (R)-(2-(3-ethylphenyl)-1-(3-(4-(4-methoxyphenyl)-1H-1,2,3-triazol-1-yl)propanamido)ethyl)boronic acid], in test [1], the “Selectivity LMP7 vs Beta5” value is listed as “+++ (+++: Selectivity > 30)”. Besides, the IC50 was below 50 nM in test [1] (setting [3]) and 50 to 500 nM in test [2].

In the case of `CCc1cccc(C[C@H](NC(=O)CCn2cc(-c3cccnc3)nn2)B(O)O)c1` [Example 76, (R)-(2-(3-ethylphenyl)-1-(3-(4-(pyridin-3-yl)-1H-1,2,3-triazol-1-yl)propanamido)ethyl)boronic acid], the “Selectivity LMP7 vs Beta5” value in test [1] is given as “+++ (+++: Selectivity > 30)”. Moreover, the values for the IC50 in test [1] (setting [3]) and in test [2] were below 50 nM and 500 to 5000 nM, respectively.

Regarding `CC(=O)N[C@@H](Cc1coc2ccccc12)B(O)O` [Example 78, (R)-(1-acetamido-2-(benzofuran-3-yl)ethyl)boronic acid], the “Selectivity LMP7 vs Beta5” value in test [1] was “+++ (+++: Selectivity > 30)”. In addition, the figures for the IC50 in test [1] (setting [3]) and in test [2] were below 50 nM and 500 to 5000 nM, respectively.

Take `COc1ccc(CCC(=O)N[C@@H](Cc2coc3ccccc23)B(O)O)cc1` [Example 79, (R)-(2-(benzofuran-3-yl)-1-(3-(4-methoxyphenyl)propanamido)ethyl) boronic acid]: the “Selectivity LMP7 vs Beta5” value in test [1] is recorded as “+++ (+++: Selectivity > 30)”. Also, the concentration for half-maximal inhibition (IC50) was below 50 nM in test [1] (setting [4]) and 50 to 500 nM in test [2].

With `O=C(CCc1ccc(F)cc1)N[C@@H](Cc1coc2ccccc12)B(O)O` [Example 80, (R)-(2-(benzofuran-3-yl)-1-(3-(4-fluorophenyl)propanamido)ethyl) boronic acid], the “Selectivity LMP7 vs Beta5” value in test [1] is listed as “+++ (+++: Selectivity > 30)”. Moreover, the half-inhibitory concentration (IC50) in test [1] (setting [4]) and in test [2] was below 50 nM throughout.

For the compound `O=C(CCc1ccccc1F)N[C@@H](Cc1coc2ccccc12)B(O)O` [Example 81, (R)-(2-(benzofuran-3-yl)-1-(3-(2-fluorophenyl)propanamido)ethyl) boronic acid], in test [1], the “Selectivity LMP7 vs Beta5” value is on record as “++ (++: 10 < Selectivity < 30)”. Also, the half-inhibitory concentration (IC50) in test [1] (setting [3]) and in test [2] was below 50 nM in each case.

Turning to `COc1ccccc1CCC(=O)N[C@@H](Cc1coc2ccccc12)B(O)O` [Example 82], the “Selectivity LMP7 vs Beta5” value in test [1] was “++ (++: 10 < Selectivity < 30)”. Also, the concentration for half-maximal inhibition (IC50) in test [1] (setting [3]) and in test [2] was below 50 nM throughout.

With `O=C(Cc1cnc[nH]1)N[C@@H](Cc1coc2ccccc12)B(O)O` [Example 83, (R)-(1-(2-(1H-imidazol-5-yl)acetamido)-2-(benzofuran-3-yl)ethyl) boronic acid hydrochloride], in test [1], the “Selectivity LMP7 vs Beta5” value was “++ (++: 10 < Selectivity < 30)”. Besides, the IC50 was below 50 nM in test [1] (setting [4]) and 50 to 500 nM in test [2].

Take `COc1cccc(CCC(=O)N[C@@H](Cc2coc3ccccc23)B(O)O)c1` [Example 84, (R)-(2-(benzofuran-3-yl)-1-(3-(3-methoxyphenyl)propanamido)ethyl) boronic acid]: the “Selectivity LMP7 vs Beta5” value in test [1] was “++ (++: 10 < Selectivity < 30)”. The IC50 in test [1] (setting [4]) and in test [2] was below 50 nM throughout.

On to `O=C(CCc1cccc(F)c1)N[C@@H](Cc1coc2ccccc12)B(O)O` [Example 85, (R)-(2-(benzofuran-3-yl)-1-(3-(3-fluorophenyl)propanamido)ethyl) boronic acid], for which the “Selectivity LMP7 vs Beta5” value in test [1] was “+++ (+++: Selectivity > 30)”. For the same compound, the IC50 in test [1] (setting [4]) and in test [2] was below 50 nM in each case.

`O=C(CCC1CCCCC1)N[C@@H](Cc1coc2ccccc12)B(O)O` [Example 86, (R)-(2-(benzofuran-3-yl)-1-(3-cyclohexylpropanamido)ethyl)boronic acid]: the “Selectivity LMP7 vs Beta5” value in test [1] was “+++ (+++: Selectivity > 30)”. For the same compound, the IC50 was below 50 nM in test [1] (setting [3]) and 50 to 500 nM in test [2].

For the compound `O=C(CCn1c(=O)sc2ccccc21)N[C@@H](Cc1coc2ccccc12)B(O)O` [Example 87, (R)-(2-(benzofuran-3-yl)-1-(3-(2-oxobenzo[d]thiazol-3(2H)-yl)propanamido)ethyl)boronic acid], in test [1], the “Selectivity LMP7 vs Beta5” value is given as “++ (++: 10 < Selectivity < 30)”. Besides, the IC50 in test [1] (setting [4]) and in test [2] was below 50 nM each time.

For the compound `O=C(CCn1cnc2ccccc21)N[C@@H](Cc1coc2ccccc12)B(O)O` [Example 88, (R)-(1-(3-(1H-benzo[d]imidazol-1-yl)propanamido)-2-(benzofuran-3-yl)ethyl)boronic acid], the “Selectivity LMP7 vs Beta5” value in test [1] is listed as “++ (++: 10 < Selectivity < 30)”. Also, the half-maximal inhibitory concentration (IC50) in test [1] (setting [4]) and in test [2] was below 50 nM throughout.

Turning to `O=C(CCn1cc(-c2ccccc2)nn1)N[C@@H](Cc1coc2ccccc12)B(O)O` [Example 89, (R)-(2-(benzofuran-3-yl)-1-(3-(4-phenyl-1H-1,2,3-triazol-1-yl)propanamido)ethyl)boronic acid], in test [1], the “Selectivity LMP7 vs Beta5” value was “++ (++: 10 < Selectivity < 30)”. In addition, the 50% inhibitory concentration (IC50) in test [1] (setting [4]) and in test [2] was below 50 nM each time.

For `COc1ccc(-n2cc(CCC(=O)N[C@@H](Cc3coc4ccccc34)B(O)O)nn2)cc1` [Example 90, (R)-(2-(benzofuran-3-yl)-1-(3-(1-(4-methoxyphenyl)-1H-1,2,3-triazol-4-yl)propanamido)ethyl)boronic acid], in test [1], the “Selectivity LMP7 vs Beta5” value is reported as “+++ (+++: Selectivity > 30)”. In addition, the half-inhibitory concentration (IC50) in test [1] (setting [4]) and in test [2] was below 50 nM in each case.

As to `CN(CC(=O)N[C@@H](Cc1coc2ccccc12)B(O)O)S(C)(=O)=O` [Example 91, (R)-(2-(benzofuran-3-yl)-1-(2-(N-methylmethylsulfonamido)acetamido)ethyl)boronic acid], the “Selectivity LMP7 vs Beta5” value in test [1] is “+++ (+++: Selectivity > 30)”. In addition, the IC50 in test [1] (setting [4]) is below 50 nM; in test [2], 50 to 500 nM.

For `O=C(CCN1CCNCC1)N[C@@H](Cc1coc2ccccc12)B(O)O` [Example 92, (R)-(2-(benzofuran-3-yl)-1-(3-(piperazin-1-yl)propanamido)ethyl) boronic acid hydrochloride], the “Selectivity LMP7 vs Beta5” value in test [1] is reported as “+++ (+++: Selectivity > 30)”. Further, the IC50 is below 50 nM in test [1] (setting [3]) and 50 to 500 nM in test [2].

With `O=C(CCc1ccncc1)N[C@@H](Cc1coc2ccccc12)B(O)O` [Example 93, (R)-(2-(benzofuran-3-yl)-1-(3-(pyridin-4-yl)propanamido)ethyl)boronic acid hydrochloride], the “Selectivity LMP7 vs Beta5” value in test [1] is “++ (++: 10 < Selectivity < 30)”. Also, the IC50 in test [1] (setting [4]) and in test [2] was below 50 nM throughout.

With `O=C(CCc1ccccc1)N[C@@H](Cc1coc2ccccc12)B(O)O` [Example 94, (R)-(2-(benzofuran-3-yl)-1-(3-phenylpropanamido)ethyl)boronic acid], the “Selectivity LMP7 vs Beta5” value in test [1] is “+++ (+++: Selectivity > 30)”. Also, the concentration for half-maximal inhibition (IC50) in test [1] (setting [4]) and in test [2] was below 50 nM each time.

The values above are taken from patent US9688702B2, “Alpha-amino boronic acid derivatives, selective immunoproteasome inhibitors” (Ares Trading S.A, priority 2011, dated 2017).
